The test system of experiment [1] is Escherichia coli strain MC4100 IMP-4213, which harbors an LptD mutation. Conditions: E. coli MC4100 IMP-4213, 35° C., 22 hours. Summed up: (§1)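 CLSI broth microdilution in cation-adjusted Mueller Hinton Broth with 0.002% Tween-80, two-fold dilutions starting at 64 μg/ml.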
The subject of experiment [2] is methicillin resistant Staphylococcus aureus (MRSA) strain USA300 (NRS384). Particulars: MRSA USA300 (NRS384), 35° C., 22 hours. Summed up:
as §1

In another experiment the target is T1, E. coli SPase (Escherichia coli, UniProt P00803).
T1 construct: Full length His-tagged E. coli SPase proteins; His; made in house; host or cells: E. coli BL21(DE3)
T1 sequence (P00803 whole entry): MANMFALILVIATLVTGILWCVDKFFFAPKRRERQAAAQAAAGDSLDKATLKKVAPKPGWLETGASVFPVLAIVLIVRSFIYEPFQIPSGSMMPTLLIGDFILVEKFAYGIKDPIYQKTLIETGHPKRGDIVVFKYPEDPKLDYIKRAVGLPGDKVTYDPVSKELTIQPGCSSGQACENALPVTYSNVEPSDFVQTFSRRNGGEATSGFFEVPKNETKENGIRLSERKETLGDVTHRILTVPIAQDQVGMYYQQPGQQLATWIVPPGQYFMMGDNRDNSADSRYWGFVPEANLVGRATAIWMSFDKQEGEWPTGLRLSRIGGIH
The experiment can be described thus: Biochemical SPase activity assay, fluorogenic peptide substrate, E. coli enzyme. Particulars: 20 μM substrate, 10 minutes preincubation, read-out: IC 50 (nM) E. coli. As for the experimental part:
Full length His-tagged E. coli SPase proteins were expressed in E. coli BL21(DE3) containing the plasmid pET23-lepB. Briefly, saturated overnight cultures grown in 20 ml of Luria-Bertani medium supplemented with ampicillin were subcultures into 1.5 L of Luria-Bertani, and shaken at 37° C. until an optical density at 600 nm of 0.4-0.5 was achieved.
(§2) Signal peptidase enzyme activity of the above proteins was measured using two fluorogenic peptide substrates (decanoyl-LSSPAYNO2A ? ADKabzPD and decanoyl-LTPTAYNO2A ? ASKKabzDD), where abz is the fluorescence donor 2-aminobenzamide, YNO2 is the fluorescence acceptor 3-nitrotyrosine, and the cleavage site is indicated with an arrow. Enzyme mix solution was prepared by diluting 2.5 nM of Escherichia coli or Staphylococcus aureus SPase protein into reaction buffers consisting of 20 mM PO4 pH 7.4, 100 mM NaCl, and 1% Elugent™ or octyl phenoxypolyethoxylethanol detergent at a concentration of 0.25% or 0.0625%. Reactions were initiated by the addition of substrate to a final concentration of 20 μM. Reaction progress was monitored by measuring the increase in fluorescence signal (excitation at 314 nm, emission at 416 nm) using a SpectraMax M2 fluorescence microplate reader. To determine IC50 values of test compounds, compound stock solutions were prepared in DMSO at a concentration of 1 mM. Three-folder serial dilutions of test compounds, starting at 10 μM, were prepared in enzyme mix solution and incubated at room temperature for 10 minutes. Following this incubation, fluorogenic substrate was added to a final concentration of 20 μM and the increase in fluorescence, corresponding to substrate cleavage, was monitored continuously at room temperature for 1 hour. Initial reaction rates were calculated based on the rate of increase in fluorescence during the reaction. Reaction rates were plotted as a function of compound concentration, and IC50 values are determined nonlinear regression analysis (SoftMaxPro 5.4, Molecular Devices™) of the sigmoidal dose-response curve.

Another experiment addresses S. aureus SPase (Staphylococcus aureus, UniProt P0A070). The experiment can be described thus: biochemical. Conditions: IC 50 (nM) S. aureus, 20 μM substrate, 10 minutes preincubation. As for the experimental part:
Full length His-tagged S. aureus SPase protein was expressed similarly from E. coli BL21(DE3) containing the plasmid pCDF1-SaSpsB and purified similarly to the E. coli protein with the following exceptions. SPase protein was solubilized using 300 mM NaCl, 20 mM Tris pH 8.06, 5 mM Imidazole, 10% glycerol, 1% Triton X-100, prior to purification in Ni-NTA Superflow resin and resin bound protein was washed in a similar buffer containing 1% Elugent in place of Triton X-100 prior to protein eluted in wash buffer supplemented with 300 mM imidazole. […] All protein concentrations were determined by BCA assay.
as §2

Values after ≈ are worked out from the molar mass of the structure shown. Read-outs that look alike come from different tables or passages of the source. *1 amine or outer side, *2 acyl side, *3 side chain or, on linkers, in order; H or OH if unused. Where a SMILES comes first, the peptide text is derived from it. [ ]: non-standard residue; d: D form. The star is where a group is joined. boroAla((+)-pinanediol) = C[C@H](N*)B1O[C@@H]2C[C@@H]3C[C@@H](C3(C)C)[C@]2(C)O1; Biphenylcarbonyl(4'-Bu) = CCCCc1ccc(-c2ccc(C(=O)*)cc2)cc1; Benzoyl(4-(4-Cl-Ph)) = O=C(c1ccc(-c2ccc(Cl)cc2)cc1)*; X16 = O=S(=O)(c1ccc(-c2ccc(Cl)cc2)cc1)*; X10 = O=C(c1ccc(-c2ccc(Cl)cc2)nc1)*; X12 = C[C@H](N*)C(=O)c1nc2ccccc2o1; X15 = Cc1nnc(C(=O)[C@H](C)N*)o1; X9 = CC1(c2ccccc2)CCN(*)CC1; Decanoyl = CCCCCCCCCC(=O)*; Dab = NCC[C@H](N)C(=O)O; Dap = NC[C@H](N)C(=O)O; CO = O=C([*:1])[*:2]; Sar = CNCC(=O)O

S. aureus SPase, sequence (P0A070 whole entry): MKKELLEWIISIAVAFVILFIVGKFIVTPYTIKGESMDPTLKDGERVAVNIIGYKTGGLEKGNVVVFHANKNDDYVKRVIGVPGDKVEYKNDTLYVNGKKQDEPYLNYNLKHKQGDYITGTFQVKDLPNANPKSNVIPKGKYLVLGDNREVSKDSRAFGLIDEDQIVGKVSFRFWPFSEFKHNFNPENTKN

For the compound `CCCCc1ccc(-c2ccc(C(=O)N[C@@H](CCN)C(=O)N(C)CC(=O)N[C@@H](C)C(=O)N[C@@H](CCCCN)C(=O)N[C@@H](C)B3O[C@@H]4C[C@@H]5C[C@@H](C5(C)C)[C@]4(C)O3)cc2)cc1` [Compound 124] ({Biphenylcarbonyl(4'-Bu)}-[Dab][Sar]AK-{boroAla((+)-pinanediol)}), the “MIC (μg/mL) E. coli” value in experiment [1] was 0.6 µg/mL (≈ 0.723 µM). In addition, in experiment [2], the “MIC (μg/mL) S. aureus” value is 0.8 µg/mL (≈ 0.964 µM). Besides, the results for the IC50 on E. coli SPase and against S. aureus SPase were 110 nM and 2000 nM, respectively.

Turning to `C[C@H](NC(=O)[C@H](CCCCN)NC(=O)[C@H](C)NC(=O)[C@@H](NC(=O)[C@H](CCN)NC(=O)c1ccc(-c2ccc(Cl)cc2)nc1)[C@@H](C)O)B1O[C@@H]2C[C@@H]3C[C@@H](C3(C)C)[C@]2(C)O1` [Compound 118] (X10-[Dab]TAK-{boroAla((+)-pinanediol)}), the “MIC (μg/mL) E. coli” value in experiment [1] was 8 µg/mL (≈ 9.53 µM). The “MIC (μg/mL) S. aureus” value in experiment [2] stood at 2 µg/mL (≈ 2.38 µM). Besides, the IC50 on E. coli SPase turned out to be 15 nM; at S. aureus SPase it was 70 nM.

With `C[C@H](NC(=O)[C@H](CCCCN)NC(=O)[C@H](C)NC(=O)[C@@H](NC(=O)[C@H](CCCCN)NC(=O)N1CCC(C)(c2ccccc2)CC1)[C@@H](C)O)B1O[C@@H]2C[C@@H]3C[C@@H](C3(C)C)[C@]2(C)O1` [Compound 130] ({X9-CO}-KTAK-{boroAla((+)-pinanediol)}), in experiment [1], the “MIC (μg/mL) E. coli” value is more than 64 µg/mL. Also, the “MIC (μg/mL) S. aureus” value in experiment [2] is 64 µg/mL (≈ 75 µM). For the same compound, the figures for the IC50 on E. coli SPase and against S. aureus SPase were 270 nM and 280 nM, respectively.

As for `C[C@H](NC(=O)[C@H](CCCCN)NC(=O)[C@H](C)NC(=O)[C@@H](NC(=O)[C@H](CCCCN)NS(=O)(=O)c1ccc(-c2ccc(Cl)cc2)cc1)[C@@H](C)O)B1O[C@@H]2C[C@@H]3C[C@@H](C3(C)C)[C@]2(C)O1` [Compound 128] (X16-KTAK-{boroAla((+)-pinanediol)}), the “MIC (μg/mL) E. coli” value in experiment [1] was 64 µg/mL (≈ 70.9 µM). The “MIC (μg/mL) S. aureus” value in experiment [2] was 2 µg/mL (≈ 2.22 µM). For the same compound, the IC50 stood at 1200 nM on E. coli SPase and 75 nM against S. aureus SPase.

With `CCCCc1ccc(-c2ccc(C(=O)N[C@@H](CCN)C(=O)N[C@H](C(=O)N[C@@H](C)C(=O)N[C@@H](CCCCN)C(=O)N[C@@H](C)C(=O)C3OC3C)[C@@H](C)O)cc2)cc1` (single isomer, unassigned) [Compound 203 P2], the “MIC (μg/mL) E. coli” value in experiment [1] (listed as 203 P2) stood at 23 µg/mL (≈ 30 µM). In addition, in experiment [2] (listed as 203 P2), the “MIC (μg/mL) S. aureus” value is 8 µg/mL (≈ 10.4 µM). Further, the IC50 worked out at 1500 nM at E. coli SPase and 1000 nM at S. aureus SPase.

As for `CCCCCCCCCC(=O)N[C@@H](CCN)C(=O)N[C@H](C(=O)N[C@@H](C)C(=O)N[C@@H](CCCCN)C(=O)N[C@@H](C)B1O[C@@H]2C[C@@H]3C[C@@H](C3(C)C)[C@]2(C)O1)[C@@H](C)O` [Compound 117] (Decanoyl-[Dab]TAK-{boroAla((+)-pinanediol)}), the “MIC (μg/mL) E. coli” value in experiment [1] was 8 µg/mL (≈ 10.3 µM). For the same compound, the “MIC (μg/mL) S. aureus” value in experiment [2] is 2 µg/mL (≈ 2.57 µM). In addition, the IC50 came to 20 nM at E. coli SPase and 150 nM against S. aureus SPase.

Take `Cc1nnc(C(=O)[C@H](C)NC(=O)[C@H](CCCCN)NC(=O)[C@H](C)NC(=O)[C@H](CCCCN)NC(=O)[C@H](CN)NC(=O)c2ccc(-c3ccc(Cl)cc3)cc2)o1` [Compound 213] ({Benzoyl(4-(4-Cl-Ph))}-[Dap]KAK-X15): in experiment [1], the “MIC (μg/mL) E. coli” value came out at 64 µg/mL (≈ 81.7 µM). Moreover, the “MIC (μg/mL) S. aureus” value in experiment [2] was found to be 32 µg/mL (≈ 40.9 µM). The results for the IC50 on E. coli SPase and on S. aureus SPase were 49 nM and more than 10000 nM, respectively.

For `C[C@H](NC(=O)[C@@H](NC(=O)[C@H](CN)NC(=O)c1ccc(-c2ccc(Cl)cc2)cc1)[C@@H](C)O)C(=O)N[C@@H](CCCCN)C(=O)N[C@@H](C)C(=O)c1nc2ccccc2o1` [Compound 214] ({Benzoyl(4-(4-Cl-Ph))}-[Dap]TAK-X12), the “MIC (μg/mL) E. coli” value in experiment [1] turned out to be 32 µg/mL (≈ 40.4 µM). Also, the “MIC (μg/mL) S. aureus” value in experiment [2] came out at 64 µg/mL (≈ 80.9 µM). Also, the IC50 on E. coli SPase came to 180 nM; at S. aureus SPase, 630 nM.

The values above are taken from US20160194358A1, “LINEAR PEPTIDE ANTIBIOTCS” (priority 2013, published 2016).
